Source: patent publication US20220251610A1, “Prehydrolysate Fermentability in Biomass Pretreatment” (University of Cincinnati, priority 2021, published 2022)

Legend:
[1] = tested on: Saccharomyces cerevisiae; assay: Yeast fermentation of prehydrolysates from dilute acid pretreatment of aspen with nucleophilic additives; format: cell-based; conditions: for time at which glucose was completely consumed: 4% (w/w of dry biomass) additive in dilute acid pretreatment, glucose about 20 g/L; for final ethanol concentration / glucose consumption rate / volumetric ethanol productivity: 4% additive in pretreatment; for final ethanol concentration: 48 h fermentation; for glucose consumption rate / volumetric ethanol productivity: first 6 h of fermentation
Method: This analysis was carried out according to the NREL protocol. All pretreatment experiments were carried out in a Parr batch pressure vessel (model of 4520 of 2.0 L of capacity) (Parr Instrument Co., Moline, Ill.). […] All the pretreatment processes were conducted at 170° C. in 60 min. After pretreatment, the stirred reactor was quenched in a bucket with cold water. The slurry after pretreatment was separated into solid fraction and liquid fraction by vacuum filtration. The liquid fraction (prehydrolysates) was stored at 4° C. and used for subsequent analyses and fermentation. The pretreated substrates were washed with 560 mL warm water at least three times and collected by vacuum filtration. Fleischmann's pure dry yeast, Saccharomyces cerevisiae was stored at 4° C. and used for the ethanol fermentation. […] The concentration of yeast suspensions was determined by UV-spectrophotometer at 600 nm. […] Batch fermentation was taking place in a 250 mL flask with 50 mL prehydrolysates without any extra nutrients. […] Moreover, excessive CaCO3 was added to adjust the pH of prehydrolysates to 6. Then, the solution was filtered to remove CaCO3 and other impurities through the membrane filter (0.22 μm). All fermentation experiments were incubated at 30° C. and 150 rpm for 48 h in an incubator shaker (E24, New Brunswick Scientific). […] Fermentation was conducted in duplicate. The volumetric ethanol productivity (QEtOH) was calculated based on the produced ethanol in the first 6 h of fermentation as described previously. […] The sugar concentrations were detected by an Agilent 1260 HPLC system equipped with a Bio-Rad HPX-87P column (300×7.8 mm) connected to a refractive index detector (RID-10A). […] The column temperature and detector temperature were kept at 80, and 45° C., respectively. […] To examine whether adding nucleophilic additives in pretreatment can enhance prehydrolysate fermentability, cysteine, histidine, soy protein isolate (SPI) and bovine serum albumin (BSA) were added in the dilute acid pretreatment of aspen.

[2] = Xylan 1.67 g/L; cited from earlier work

## N[C@@H](CS)C(=O)O [cysteine]
[1]
  time at which glucose was completely consumed: 24 h
  final ethanol concentration: 8.87 g/L
  glucose consumption rate: 1.35 g/L/h
  volumetric ethanol productivity: 0.51 g/L/h

## N[C@@H](Cc1c[nH]cn1)C(=O)O [histidine]
[1]
  time at which glucose was completely consumed: 6 h
  final ethanol concentration: 8.69 g/L
  glucose consumption rate: 3.22 g/L/h
  volumetric ethanol productivity: 1.44 g/L/h

## Xylan
[2]
  reduction of the initial hydrolysis rate of Avicel: 34.5%
